From ChEMBL document CHEMBL4837181 (Eur J Med Chem, 2020)
Values belong to the molecule of their own block, whether it stands above or below them. The source made the active and inactive calls. No cut-off for these calls is given here.

Key:
[1] = test system: B16-F10; assay: Antitumor activity against mouse B16-F10 cells implanted in C57BL/6 mouse assessed as reduction in tumor size at >= 287 micromol/kg, po BID administered from day 6 to day 11 and measured on day 11 by caliper method; assay type: functional, organism-based; conditions: dose micromol/kg >=287
[2] = Stability in mouse plasma assessed as parent compound remaining measured after 2 hrs by LC-MS/MS analysis; assay type: ADME, cell-free; conditions: read-out: Stabilty
[3] = Stability in rat plasma assessed as parent compound remaining measured after 2 hrs by LC-MS/MS analysis; assay type: ADME, cell-free; conditions: read-out: Stabilty
[4] = Dose normalized Cmax in rat at 50 mg/kg, po measured upto 72 hrs by LC-MS/MS analysis; assay type: ADME, organism-based; conditions: in vivo
[5] = Dose normalized AUC (0 to infinity) in rat at 50 mg/kg, po measured upto 72 hrs by LC-MS/MS analysis; assay type: ADME, organism-based; conditions: in vivo
[6] = Change in normalised Cmax in rat at 50 mg/kg, po measured upto 72 hrs by LC-MS/MS analysis; assay type: ADME, organism-based; conditions: in vivo
[7] = Change in normalised AUC (infinity) in rat at 50 mg/kg, po measured upto 72 hrs by LC-MS/MS analysis; assay type: ADME, organism-based; conditions: in vivo
[8] = Change in Cmax in rat at 37 umol/kg, po measured upto 72 hrs by LC-MS/MS analysis; assay type: ADME, organism-based; conditions: in vivo, at 37 µmol/kg
[9] = Change in Cmax in rat at 185 umol/kg, po measured upto 72 hrs by LC-MS/MS analysis; assay type: ADME, organism-based; conditions: in vivo, at 185 µmol/kg
[10] = Change in AUC (infinity) in rat at 37 umol/kg, po measured upto 72 hrs by LC-MS/MS analysis; assay type: ADME, organism-based; conditions: in vivo, at 37 µmol/kg
[11] = Cmax in male cynomolgus monkey at 150 mg/kg, po BID measured on day 8; assay type: ADME, organism-based, Macaca fascicularis; set-up: route oral, dose 150 mg/kg; conditions: in vivo
[12] = Cmax in male cynomolgus monkey at 225 mg/kg, po measured on day 1; assay type: ADME, organism-based, Macaca fascicularis; set-up: route oral, dose 225 mg/kg; conditions: in vivo
[13] = Cmax in female cynomolgus monkey at 375 mg/kg, po BID measured on day 8; assay type: ADME, organism-based, Macaca fascicularis; set-up: route oral, dose 375 mg/kg; conditions: in vivo
[14] = Cmax in female cynomolgus monkey at 675 mg/kg, po measured on day 1; assay type: ADME, organism-based, Macaca fascicularis; set-up: route oral, dose 675 mg/kg; conditions: in vivo
[15] = Cmax in male cynomolgus monkey at 675 mg/kg, po measured on day 1; assay type: ADME, organism-based, Macaca fascicularis; set-up: route oral, dose 675 mg/kg; conditions: in vivo
[16] = Tmax in male cynomolgus monkey at 150 mg/kg, po BID measured on day 8; assay type: ADME, organism-based, Macaca fascicularis; conditions: in vivo
[17] = Tmax in male cynomolgus monkey at 225 mg/kg, po measured on day 1; assay type: ADME, organism-based, Macaca fascicularis; conditions: in vivo
[18] = Tmax in female cynomolgus monkey at 375 mg/kg, po BID measured on day 8; assay type: ADME, organism-based, Macaca fascicularis; conditions: in vivo
[19] = Tmax in female cynomolgus monkey at 675 mg/kg, po measured on day 1; assay type: ADME, organism-based, Macaca fascicularis; conditions: in vivo
[20] = Tmax in male cynomolgus monkey at 675 mg/kg, po measured on day 1; assay type: ADME, organism-based, Macaca fascicularis; conditions: in vivo
[21] = AUC (0 to 24 hrs) in male cynomolgus monkey at 150 mg/kg, po BID measured on day 8; assay type: ADME, organism-based, Macaca fascicularis; set-up: time < 24 hr, route oral, dose 150 mg/kg; conditions: in vivo
[22] = AUC (0 to 24 hrs) in male cynomolgus monkey at 225 mg/kg, po measured on day 1; assay type: ADME, organism-based, Macaca fascicularis; set-up: time < 24 hr, route oral, dose 225 mg/kg; conditions: in vivo, 24 h
[23] = AUC (0 to 24 hrs) in female cynomolgus monkey at 375 mg/kg, po BID measured on day 8; assay type: ADME, organism-based, Macaca fascicularis; set-up: time < 24 hr, route oral, dose 375 mg/kg; conditions: in vivo
[24] = AUC (0 to 24 hrs) in female cynomolgus monkey at 675 mg/kg, po measured on day 1; assay type: ADME, organism-based, Macaca fascicularis; set-up: time < 24 hr, route oral, dose 675 mg/kg; conditions: in vivo
[25] = Half life in female cynomolgus monkey at 675 mg/kg, po measured on day 1; assay type: ADME, organism-based, Macaca fascicularis; conditions: in vivo
[26] = AUC (0 to 24 hrs) in male cynomolgus monkey at 675 mg/kg, po measured on day 1; assay type: ADME, organism-based, Macaca fascicularis; set-up: time < 24 hr, route oral, dose 675 mg/kg; conditions: in vivo
[27] = Half life in male cynomolgus monkey at 675 mg/kg, po measured on day 1; assay type: ADME, organism-based, Macaca fascicularis; conditions: in vivo
[28] = Drug accumulation in rat at 100 to 900 mg/kg, po BID; assay type: ADME, organism-based; conditions: in vivo, dose 100-900 mg/kg
[29] = Drug accumulation in monkey at 75 to 375 mg/kg, po BID; assay type: ADME, organism-based, Macaca mulatta; conditions: rhesus monkey, in vivo, dose 75-375 mg/kg
[30] = Protein binding in Beagle dog plasma; assay type: ADME, cell-free, Canis lupus familiaris; conditions: read-out: PPB
[31] = Protein binding in human plasma; assay type: ADME, cell-free; conditions: read-out: PPB

SMILES: CCOC(=O)[C@@H](Cc1cn(C)c2ccccc12)NC(=O)[C@@H](N)CC(C)C
Activity [1]: Active

SMILES: Cn1cc(C[C@@H](NC(=O)OCC(C)(C)C)C(=O)O)c2ccccc21
remaining at 2 h [2]: 100% | remaining at 2 h [3]: 100% | Cmax/dose [4]: 0.15 µM | AUC/dose [5]: 5.5 µM·h | Activity [6]: -99% | Activity [7]: -100%

SMILES: CCOC(=O)[C@@H](Cc1cn(C)c2ccccc12)NC(=O)[C@@H](N)CCSC.O=P(O)(O)O
Activity [8]: 32% | Activity [9]: 49% | Activity [10]: 2%

SMILES: CC(C)C[C@H](N)C(=O)N[C@H](Cc1cn(C)c2ccccc12)C(=O)O
Cmax [11]: 192 nM | Cmax [12]: 353 nM | Cmax [13]: 308 nM | Cmax [14]: 1580 nM | Cmax [15]: 1760 nM | Tmax [16]: 1 h | Tmax [17]: 2 h | Tmax [18]: 2 h | Tmax [19]: 1.5 h | Tmax [20]: 1 h | AUC at 24 h [21]: 0.0806 µM·h | AUC [22]: 858 nM·h | AUC at 24 h [23]: 0.703 µM·h | AUC [24]: 3.61 µM·h | half-life [25]: 492 min | AUC [26]: 2880 nM·h | half-life [27]: 222 min | Drug metabolism [28]: Metabolite_Notdetected | Drug metabolism [29]: Metabolite_Notdetected | fraction unbound [30]: > 0.5 | fraction unbound [31]: > 0.5

Next, values leading:

remaining at 2 h [2]: 0% | remaining at 2 h [3]: 0% | Cmax/dose [4]: 28 µM | AUC/dose [5]: 1028 µM·h | Activity [6]: 4% | Activity [7]: -22%
SMILES: Cl.Cn1cc(C[C@@H](N)C(=O)OCc2ccccc2)c2ccccc21

remaining at 2 h [2]: 0% | remaining at 2 h [3]: 0% | Cmax/dose [4]: 28 µM | AUC/dose [5]: 1051 µM·h | Activity [6]: 4% | Activity [7]: -21%
SMILES: CC(C)OC(=O)[C@H](N)Cc1cn(C)c2ccccc12.Cl
